This is an account of results in patent US10662159B2, “ABHD6 and dual ABHD6/MGL inhibitors and their uses” (MAKScientific, LLC, priority 2017, dated 2020).

Holding throughout (assay type): biochemical
The target in one experiment is hABHD6 (Homo sapiens (Human), UniProt Q9BV23). Description: Fluorescent assay for hABHD6 (AHMMCE substrate hydrolysis). Conditions: membrane fraction containing full-length hABHD6, 20 μM AHMMCE; read-out: ABHD6 Inhibition IC50. As to the method:
(§1) Certain compounds were tested for their ABHD6 and dual ABHD6/MGL inhibitory activity, which is expressed as % of inhibition or IC50 values in Table 1. The percentage of inhibition describes the percentage by which the inhibitor reduces the velocity/rate of 2-AG hydrolysis by ABHD6, and MGL or AEA hydrolysis by FAAH. […] The lower the IC50 values, the higher its inhibitory activity. A detailed description of the methods used to test inhibitory activity of compounds is given below.
Fluorescent Assays Protocol for hABHD6
Initial Fluorescent Inhibition Assay (3-Point)—
In each well of a 96-well plate 8 μL of membrane fraction containing full-length hABHD6 (1 μg total protein) was mixed with 168 μL of assay buffer (50 mM Tris-HCl, pH 7.6), and 20 μL of diluted compound (diluted in a dilution buffer consisting of 50% DMSO/50% assay buffer v/v). Each plate was incubated at RT for 15 minutes before adding 4 μL of 1 mM AHMMCE substrate (final concentration of 20 μM AHMMCE and final volume of 200 μL). The reaction was allowed to proceed for 1 hr at RT before the fluorescence was read at λex 360 nm and λem 460 nm and the inhibition calculated. Each experiment can test 8 compounds at three concentrations (usually 10 μM, 1 μM, and 100 nM).
IC50 Determination Assay (8-Point)—
A more detailed assay with an extended range tests compounds over 8 concentrations depending on the pre-determined approximate IC50 value from the initial screen. […] The assay was conducted in 96 well plate with each well containing the same reaction mixture detailed above in the 3-point screen. The relative fluorescence is quantified into coumarin produced by using a standard curve of HMMC in triplicate on each plate. Results are normalized to the negative control wells and the IC50 is determined using a non-linear regression curve fit in Prism, version 5 (GraphPad, San Diego, Calif.).

The target in a further experiment is Rat ΔTM FAAH (Rattus norvegicus (Rat), UniProt P97612). The experiment can be described thus: Fluorescent assay for rat ΔTM FAAH (AAMCA substrate). Conditions: ΔTM rFAAH, AAMCA 20 μM; read-out: rFAAH Inhibition IC50. The method, then:
Certain compounds were tested for their ABHD6 and dual ABHD6/MGL inhibitory activity, which is expressed as % of inhibition or IC50 values in Table 1. The percentage of inhibition describes the percentage by which the inhibitor reduces the velocity/rate of 2-AG hydrolysis by ABHD6, and MGL or AEA hydrolysis by FAAH. The IC50 is the concentration of the inhibitor, which results in 50% inhibition of the velocity/rate of 2-AG hydrolysis by ABHD6 or MGL. The IC50 is the concentration of the inhibitor, which results in 50% inhibition of the velocity/rate of AEA hydrolysis by FAAH. The lower the IC50 values, the higher its inhibitory activity. A detailed description of the methods used to test inhibitory activity of compounds is given below.
Example 79. Preparation of Transmembrane Domain-Deleted Rat FAAH (ΔTM rFAAH)
Rat ΔTM FAAH was expressed in E. coli cells and purified using the procedure disclosed by Patricelli et al. Biochemistry (1998) 37: 15177-15187.
Example 81. Fluorescent Assay Protocol for Rat ΔTM FAAH
The fluorescence reading at the 3 hour time point (linear enzyme kinetics) was used to calculate percent inhibition based on control assays without inhibitor present. All FAAH assays were performed in triplicate for each inhibitor concentration, and IC50 values determined using Prizm software (GraphPad Software, Inc.).

The target in the next experiment is hMGL (Homo sapiens (Human), UniProt Q99685). The experiment can be described thus: Fluorescent assay for hMGL (AHMMCE substrate hydrolysis). The note with it: E. coli lysate containing hMGL, read-out: hMGL Inhibition IC50. The method, then: as §1
Sequence of hMGL (Q99685 whole entry): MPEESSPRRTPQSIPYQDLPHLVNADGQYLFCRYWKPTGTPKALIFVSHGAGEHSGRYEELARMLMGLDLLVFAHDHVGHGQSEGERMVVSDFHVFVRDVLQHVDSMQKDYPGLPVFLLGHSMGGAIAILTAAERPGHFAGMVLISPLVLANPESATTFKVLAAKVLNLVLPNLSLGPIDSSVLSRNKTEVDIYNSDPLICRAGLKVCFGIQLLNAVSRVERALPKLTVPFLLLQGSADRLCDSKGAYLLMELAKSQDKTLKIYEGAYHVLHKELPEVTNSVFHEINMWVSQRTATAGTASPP
Preparation of Human MAGL (hMAGL)
Fluorescent Assay Protocol for hMGL
This medium throughput assay involved a 96-well plate format in which hMGL activity was monitored by the hydrolysis of the substrate […] (AHMMCE) to form the fluorescent product, coumarin. […] Upon the addition of AHMMCE, the reaction was incubated at 25° C. for 120 min; fluorescence readings were taken every 15 min at 360 nm/460 nm (λexcitation/λemission) using a Synergy HT Plate Reader (Bio-Tek, Winooski, Vt.). […] External standards were used to convert relative fluorescence units to the amount of 4-methylcoumarin formed. All MGL assays were performed in triplicate for each inhibitor concentration, and IC50 values were calculated using Prizm software (GraphPad Software, Inc., San Diego, Calif.).

Sequence of Rat ΔTM FAAH (P97612 30-579): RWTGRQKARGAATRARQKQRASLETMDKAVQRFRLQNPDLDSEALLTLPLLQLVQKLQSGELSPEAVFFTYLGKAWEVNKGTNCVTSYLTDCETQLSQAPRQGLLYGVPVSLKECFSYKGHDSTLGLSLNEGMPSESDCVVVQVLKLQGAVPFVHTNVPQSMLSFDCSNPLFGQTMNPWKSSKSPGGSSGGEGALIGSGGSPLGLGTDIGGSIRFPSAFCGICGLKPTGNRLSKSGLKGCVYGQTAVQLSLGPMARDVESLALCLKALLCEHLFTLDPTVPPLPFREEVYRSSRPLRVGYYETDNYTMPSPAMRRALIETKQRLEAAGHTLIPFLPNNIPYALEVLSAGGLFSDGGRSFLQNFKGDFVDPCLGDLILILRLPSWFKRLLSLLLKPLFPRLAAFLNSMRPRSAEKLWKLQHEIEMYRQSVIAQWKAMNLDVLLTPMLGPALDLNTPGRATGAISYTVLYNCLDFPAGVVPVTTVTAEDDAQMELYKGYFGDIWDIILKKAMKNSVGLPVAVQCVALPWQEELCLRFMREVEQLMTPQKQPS
Sequence of hABHD6 (Q9BV23 whole entry): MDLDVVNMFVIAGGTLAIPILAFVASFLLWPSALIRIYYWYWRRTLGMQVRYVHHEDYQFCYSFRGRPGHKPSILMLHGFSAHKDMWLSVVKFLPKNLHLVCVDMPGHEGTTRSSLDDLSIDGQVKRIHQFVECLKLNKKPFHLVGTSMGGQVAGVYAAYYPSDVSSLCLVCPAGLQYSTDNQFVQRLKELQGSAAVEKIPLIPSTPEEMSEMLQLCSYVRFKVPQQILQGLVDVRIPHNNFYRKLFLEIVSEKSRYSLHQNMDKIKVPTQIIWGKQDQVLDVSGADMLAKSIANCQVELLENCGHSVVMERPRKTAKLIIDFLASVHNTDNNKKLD

In the case of `O=C(COc1ccc2c(c1)CN(C(=O)OC(C(F)(F)F)C(F)(F)F)C2)N1CCOCC1` [Example 50, 1,1,1,3,3,3-Hexafluoropropan-2-yl 5-(2-morpholino-2-oxoethoxy)isoindoline-2-carboxylate], the IC50 (in general, the concentration that inhibits the measured activity by half) on hABHD6 is 10 to 100 nM; on Rat ΔTM FAAH it was greater than 1000 nM; on hMGL, 10 to 100 nM.

As to `CC1(C)C2C(=O)N(OC(=O)N3Cc4ccc(N5CCOCC5)cc4C3)C(=O)C21` (centres unmarked) [Example 39, 6,6-Dimethyl-2,4-dioxo-3-azabicyclo[3.1.0]hexan-3-yl 5-morpholinoisoindoline-2-carboxylate], the concentration for half-maximal inhibition (IC50) was 10 to 100 nM at hABHD6, greater than 1000 nM on Rat ΔTM FAAH and greater than 1000 nM on hMGL.

Take `O=C(OC(C(F)(F)F)C(F)(F)F)N1Cc2ccc(NCCN3CCOCC3)cc2C1` [Example 47, 1,1,1,3,3,3-Hexafluoropropan-2-yl 5-((2-morpholinoethyl)amino)isoindoline-2-carboxylate]: the IC50 on hABHD6 was 10 to 100 nM; at Rat ΔTM FAAH it was greater than 1000 nM; on hMGL it was greater than 1000 nM.

As for `O=C(OC(C(F)(F)F)C(F)(F)F)N1CCc2c(cccc2-c2ccccc2)C1` [Example 28, 1,1,1,3,3,3-Hexafluoropropan-2-yl 5-phenyl-3,4-dihydroisoquinoline-2(1H)-carboxylate], the concentration for half-maximal inhibition (IC50) on hABHD6 was 100 to 1000 nM; at Rat ΔTM FAAH, greater than 1000 nM; at hMGL, greater than 1000 nM.

For the compound `O=C(OC(C(F)(F)F)C(F)(F)F)N1Cc2ccc(OCCCF)cc2C1` [Example 42, 1,1,1,3,3,3-Hexafluoropropan-2-yl 5-(3-fluoropropoxy)isoindoline-2-carboxylate], the figures for the IC50 on hABHD6, at Rat ΔTM FAAH and on hMGL were 10 to 100 nM, greater than 1000 nM and greater than 1000 nM, respectively.

For the compound `CN(C)CCOc1ccc2c(c1)CN(C(=O)OC(C(F)(F)F)C(F)(F)F)C2` [Example 46, 1,1,1,3,3,3-Hexafluoropropan-2-yl 5-(2-(dimethylamino)ethoxy)isoindoline-2-carboxylate], the IC50 at hABHD6 was 10 to 100 nM; on Rat ΔTM FAAH, greater than 1000 nM; at hMGL it was 10 to 100 nM.

Turning to `CN1CCN(c2ccc3c(c2)CN(C(=O)OC(C(F)(F)F)C(F)(F)F)C3)CC1` [Example 29, 1,1,1,3,3,3-Hexafluoropropan-2-yl 5-(4-methylpiperazin-1-yl)isoindoline-2-carboxylate], the IC50 on hABHD6 is 100 to 1000 nM; on Rat ΔTM FAAH, greater than 1000 nM; on hMGL, greater than 1000 nM.

Regarding `O=C(OC(C(F)(F)F)C(F)(F)F)N1CCc2c(cccc2OCCCF)C1` [Example 41, 1,1,1,3,3,3-Hexafluoropropan-2-yl 5-(3-fluoropropoxy)-3,4-dihydroisoquinoline-2(1H)-carboxylate], the IC50 on hABHD6 is 10 to 100 nM; on Rat ΔTM FAAH it was greater than 1000 nM; at hMGL, greater than 1000 nM.

`O=C(OC(C(F)(F)F)C(F)(F)F)N1Cc2ccc(OCCN3CCCCC3)cc2C1` [Example 48, 1,1,1,3,3,3-Hexafluoropropan-2-yl 5-(2-(piperidin-1-yl)ethoxy)isoindoline-2-carboxylate]: the IC50 was 10 to 100 nM on hABHD6, greater than 1000 nM at Rat ΔTM FAAH and 10 to 100 nM on hMGL.

Consider `O=C(OC(CF)CF)N1CCc2c(Br)cccc2C1` [Example 5, 1,3-Difluoropropan-2-yl 5-bromo-3,4-dihydroisoquinoline-2(1H)-carboxylate], for which the IC50 at hABHD6, at Rat ΔTM FAAH and on hMGL was greater than 1000 nM throughout.

Regarding `O=C(OC(C(F)(F)F)C(F)(F)F)N1Cc2ccc(OCCN3CCCC3)cc2C1` [Example 49, 1,1,1,3,3,3-Hexafluoropropan-2-yl 5-(2-(pyrrolidin-1-yl)ethoxy)isoindoline-2-carboxylate], the concentration for half-maximal inhibition (IC50) on hABHD6 was 10 to 100 nM; at Rat ΔTM FAAH, greater than 1000 nM; at hMGL, 10 to 100 nM.

Turning to `O=C(OC(C(F)(F)F)C(F)(F)F)N1Cc2ccc(OCCN3CCOCC3)cc2C1` [Example 44, 1,1,1,3,3,3-Hexafluoropropan-2-yl 5-(2-morpholinoethoxy)isoindoline-2-carboxylate], the IC50 at hABHD6 is 100 to 1000 nM; at Rat ΔTM FAAH, greater than 1000 nM; on hMGL, greater than 1000 nM.

Regarding `O=C(OC(C(F)(F)F)C(F)(F)F)N1Cc2ccc(N3CCS(=O)(=O)CC3)cc2C1` [Example 31, 1,1,1,3,3,3-Hexafluoropropan-2-yl 5-(1,1-dioxidothiomorpholino)isoindoline-2-carboxylate], the results for the concentration for half-maximal inhibition (IC50) on hABHD6 and on Rat ΔTM FAAH were 10 to 100 nM and greater than 1000 nM, respectively.

`O=C(OC(C(F)(F)F)C(F)(F)F)N1Cc2ccc(N3CCOCC3)cc2C1` [Example 32, 1,1,1,3,3,3-Hexafluoropropan-2-yl 5-morpholinoisoindoline-2-carboxylate]: the IC50 was 10 to 100 nM on hABHD6, greater than 1000 nM on Rat ΔTM FAAH and greater than 1000 nM at hMGL.

Turning to `CC1(C)C2C(=O)N(OC(=O)N3CCc4c(Br)cccc4C3)C(=O)C21` (centres unmarked) [Example 35, 6,6-Dimethyl-2,4-dioxo-3-azabicyclo[3.1.0]hexan-3-yl 5-bromo-3,4-dihydroisoquinoline-2(1H)-carboxylate], the results for the IC50 at hABHD6, at Rat ΔTM FAAH and at hMGL were 10 to 100 nM, greater than 1000 nM and greater than 1000 nM, respectively.

Take `COc1cccc2c1CCN(C(=O)OC(C(F)(F)F)C(F)(F)F)C2` [Example 22, 1,1,1,3,3,3-Hexafluoropropan-2-yl 5-methoxy-3,4-dihydroisoquinoline-2(1H)-carboxylate]: the IC50 at hABHD6 was 10 to 100 nM; at Rat ΔTM FAAH, greater than 1000 nM; at hMGL, greater than 1000 nM.

As for `O=C(OC(C(F)(F)F)C(F)(F)F)N1Cc2ccc(OCC3CC3)cc2C1` [Example 43, 1,1,1,3,3,3-Hexafluoropropan-2-yl 5-(cyclopropylmethoxy)isoindoline-2-carboxylate], the values for the IC50 at hABHD6, at Rat ΔTM FAAH and at hMGL were 10 to 100 nM, greater than 1000 nM and greater than 1000 nM, respectively.

Take `O=C1C2CC2C(=O)N1ON1CCc2c(Br)cccc2C1` (centres unmarked) [Example 37, 3-((5-Bromo-3,4-dihydroisoquinolin-2(1H)-yl)oxy)-3-azabicyclo[3.1.0]hexane-2,4-dione]: the IC50 at hABHD6 is 100 to 1000 nM; at Rat ΔTM FAAH, greater than 1000 nM; at hMGL, greater than 1000 nM.

Consider `O=C(O[C@H](CO)C(F)(F)F)N1CCc2c(Br)cccc2C1` [Example 40, (R)-1,1,1-trifluoro-3-hydroxypropan-2-yl 5-bromo-3,4-dihydroisoquinoline-2(1H)-carboxylate], for which the results for the IC50 at hABHD6, on Rat ΔTM FAAH and at hMGL were 10 to 100 nM, greater than 1000 nM and greater than 1000 nM, respectively.

Regarding `O=C(OC(C(F)(F)F)C(F)(F)F)N1Cc2ccc(-c3ccccc3)cc2C1` [Example 25, 1,1,1,3,3,3-Hexafluoropropan-2-yl 5-phenylisoindoline-2-carboxylate], the IC50 on hABHD6 is 10 to 100 nM; at Rat ΔTM FAAH it was greater than 1000 nM; at hMGL, greater than 1000 nM.

On to `O=C(OC(C(F)(F)F)C(F)(F)F)N1Cc2ccc(N3CCCC3)cc2C1` [Example 30, 1,1,1,3,3,3-Hexafluoropropan-2-yl 5-(pyrrolidin-1-yl)isoindoline-2-carboxylate], for which the results for the IC50 at hABHD6, at Rat ΔTM FAAH and at hMGL were 10 to 100 nM, greater than 1000 nM and greater than 1000 nM, respectively.
